Where a name gives a salt, the structure may show the parent alone.
Molecular target: T1, human NHE3 (Homo sapiens, UniProt P48764)
T1 sequence (P48764 26-834): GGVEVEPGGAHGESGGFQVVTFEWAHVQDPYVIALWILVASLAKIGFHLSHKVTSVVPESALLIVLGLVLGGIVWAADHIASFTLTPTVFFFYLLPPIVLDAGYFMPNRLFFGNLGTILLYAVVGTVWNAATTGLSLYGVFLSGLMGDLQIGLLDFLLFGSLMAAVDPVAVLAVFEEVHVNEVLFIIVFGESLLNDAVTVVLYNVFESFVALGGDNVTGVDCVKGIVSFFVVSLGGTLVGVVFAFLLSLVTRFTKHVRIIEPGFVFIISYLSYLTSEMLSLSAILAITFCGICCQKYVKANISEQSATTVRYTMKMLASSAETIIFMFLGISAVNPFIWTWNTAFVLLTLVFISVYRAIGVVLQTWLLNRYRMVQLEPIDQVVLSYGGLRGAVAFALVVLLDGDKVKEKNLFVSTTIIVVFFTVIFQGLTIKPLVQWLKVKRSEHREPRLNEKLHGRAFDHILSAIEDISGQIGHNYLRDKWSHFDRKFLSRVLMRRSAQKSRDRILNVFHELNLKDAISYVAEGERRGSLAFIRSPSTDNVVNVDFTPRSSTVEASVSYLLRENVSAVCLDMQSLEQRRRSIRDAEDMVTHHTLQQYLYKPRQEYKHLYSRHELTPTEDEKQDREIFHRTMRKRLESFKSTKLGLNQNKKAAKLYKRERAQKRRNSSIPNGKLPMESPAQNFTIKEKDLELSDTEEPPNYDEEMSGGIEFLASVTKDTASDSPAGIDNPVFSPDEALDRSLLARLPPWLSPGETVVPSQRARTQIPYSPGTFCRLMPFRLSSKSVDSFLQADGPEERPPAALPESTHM
Experiment: NHE3 inhibition test (recovery of intracellular pH in cell line stably expressing human NHE3)
Assay type: cell-based
Conditions: OK cells deficient in endogenous NHE stably expressing human NHE3; BCECF fluorescence, initial rate of pH recovery; read-out: human NHE3 inhibitory activity IC50
Outline: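 Opossum kidney cells lacking endogenous NHE, stably expressing human NHE3, loaded with BCECF-AM and acid-loaded by NH4Cl washout. Compound in Na-free buffer, then Na-containing buffer (pH 7.4) added; initial pH-recovery rate by BCECF fluorescence, IC50 versus no-compound recovery.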

Row | IC50 [nM] | Structure (SMILES)
1 | 13.6 | CN1Cc2c(Cl)cc(Cl)cc2[C@H](c2cccc(-c3cc(OCCOCCOCCOCCNC(=O)Nc4ccc(NC(=O)NCCOCCOCCOCCOc5cc(-c6cccc([C@@H]7CN(C)Cc8c(Cl)cc(Cl)cc87)c6)ncn5)cc4)ncn3)c2)C1 [Example 7-25, 1,1′-Benzene-1,4-diylbis(3-{2-[2-(2-{2-[(6-{3-[(4S)-6,8-dichloro-2-methyl-1,2,3,4-tetrahydroisoquinolin-4-yl]phenyl}pyrimidin-4-yl)oxy]ethoxy}ethoxy)ethoxy]ethyl}urea) hydrochloride]
2 | 5.2 | CN1Cc2c(Cl)cc(Cl)cc2[C@H](c2cccc(-c3cn(CCOCCOCCOCCNC(=O)NCCOCCOCCNC(=O)NCCOCCOCCOCCn4cc(-c5cccc([C@@H]6CN(C)Cc7c(Cl)cc(Cl)cc76)c5)nn4)nn3)c2)C1 [Example 7-26, 1,1′-[Ethane-1,2-diylbis(oxyethane-2,1-diyl)]bis {3-[2-(2-{2-[2-(4-{3-[(4S)-6,8-dichloro-2-methyl-1,2,3,4-tetrahydroisoquinolin-4-yl]phenyl}-1H-1,2,3-triazol-1-yl)ethoxy]ethoxy}ethoxy)ethyl]urea}hydrochloride]
3 | 11.3 | CN1Cc2c(Cl)cc(Cl)cc2[C@H](c2cccc(-c3cn(CCOCCOCCOCCNC(=O)NCCCCCCNC(=O)NCCOCCOCCOCCn4cc(-c5cccc([C@@H]6CN(C)Cc7c(Cl)cc(Cl)cc76)c5)nn4)nn3)c2)C1 [Example 7-27, 1,1′-Hexane-1,6-diylbis {3-[2-(2-{2-[2-(4-{3-[(4S)-6,8-dichloro-2-methyl-1,2,3,4-tetrahydroisoquinolin-4-yl]phenyl}-1H-1,2,3-triazol-1-yl)ethoxy]ethoxy}ethoxy)ethyl]urea}hydrochloride]
4 | 7.3 | CN1Cc2c(Cl)cc(Cl)cc2[C@H](c2cccc(-c3cn(CCOCCOCCOCCNC(=O)NCCCCCCCCNC(=O)NCCOCCOCCOCCn4cc(-c5cccc([C@@H]6CN(C)Cc7c(Cl)cc(Cl)cc76)c5)nn4)nn3)c2)C1 [Example 7-28, 1,1′-Octane-1,8-diylbis {3-[2-(2-{2-[2-(4-{3-[(4S)-6,8-dichloro-2-methyl-1,2,3,4-tetrahydroisoquinolin-4-yl]phenyl}-1H-1,2,3-triazol-1-yl)ethoxy]ethoxy}ethoxy)ethyl]urea}hydrochloride]
5 | 12.4 | CN1Cc2c(Cl)cc(Cl)cc2[C@H](c2cccc(-c3cc(OCCOCCOCCOCCNC(=O)NCCCCNC(=O)NCCOCCOCCOCCOc4cc(-c5cccc([C@@H]6CN(C)Cc7c(Cl)cc(Cl)cc76)c5)ncn4)ncn3)c2)C1 [Example 7-31, 1,1′-Butane-1,4-diylbis(3-{2-[2-(2-{2-[(6-{3-[(4S)-6,8-dichloro-2-methyl-1,2,3,4-tetrahydroisoquinolin-4-yl]phenyl}pyrimidin-4-yl)oxy]ethoxy}ethoxy)ethoxy]ethyl}urea) hydrochloride]
6 | 18.1 | CN1Cc2c(Cl)cc(Cl)cc2[C@H](c2cccc(-c3cnnc(NCCOCCOCCOCCNC(=O)NCCCCNC(=O)NCCOCCOCCOCCNc4cc(-c5cccc([C@@H]6CN(C)Cc7c(Cl)cc(Cl)cc76)c5)cnn4)c3)c2)C1 [Example 7-32, 1,1′-Butane-1,4-diylbis(3-{2-[2-(2-{2-[(5-{3-[(4S)-6,8-dichloro-2-methyl-1,2,3,4-tetrahydroisoquinolin-4-yl]phenyl}pyridazin-3-yl)amino]ethoxy}ethoxy)ethoxy]ethyl}urea) tetrahydrochloride]
7 | 3.3 | CN1Cc2c(Cl)cc(Cl)cc2[C@H](c2cccc(-c3cn(CCOCCOCCOCCNC(=O)NCCNC(=O)NCCOCCOCCOCCn4cc(-c5cccc([C@@H]6CN(C)Cc7c(Cl)cc(Cl)cc76)c5)nn4)nn3)c2)C1 [Example 7-34, 1,1′-Ethane-1,2-diylbis {3-[2-(2-{2-[2-(4-{3-[(4S)-6,8-dichloro-2-methyl-1,2,3,4-tetrahydroisoquinolin-4-yl]phenyl}-1H-1,2,3-triazol-1-yl)ethoxy]ethoxy}ethoxy)ethyl]urea}hydrochloride]
8 | 4.4 | CN1Cc2c(Cl)cc(Cl)cc2[C@H](c2cccc(-c3cn(CCOCCOCCOCCNC(=O)NCCCNC(=O)NCCOCCOCCOCCn4cc(-c5cccc([C@@H]6CN(C)Cc7c(Cl)cc(Cl)cc76)c5)nn4)nn3)c2)C1 [Example 7-35, 1,1′-Propane-1,3-diylbis {3-[2-(2-{2-[2-(4-{3-[(4S)-6,8-dichloro-2-methyl-1,2,3,4-tetrahydroisoquinolin-4-yl]phenyl}-1H-1,2,3-triazol-1-yl)ethoxy]ethoxy}ethoxy)ethyl]urea}hydrochloride]
9 | 21.4 | CN1Cc2c(Cl)cc(Cl)cc2[C@H](c2cccc(-c3cn(CCOCCOCCOCCNC(=O)NCCOCCOCCOCCn4cc(-c5cccc([C@@H]6CN(C)Cc7c(Cl)cc(Cl)cc76)c5)nn4)nn3)c2)C1 [Example 7-36, 1,3-Bis[2-(2-{2-[2-(4-{3-[(4S)-6,8-dichloro-2-methyl-1,2,3,4-tetrahydroisoquinolin-4-yl]phenyl}-1H-1,2,3-triazol-1-yl)ethoxy]ethoxy}ethoxy)ethyl]urea hydrochloride]
10 | 6.6 | CN1Cc2c(Cl)cc(Cl)cc2[C@H](c2cccc(-c3cn(CCOCCOCCOCCNC(=O)NCCOCCNC(=O)NCCOCCOCCOCCn4cc(-c5cccc([C@@H]6CN(C)Cc7c(Cl)cc(Cl)cc76)c5)nn4)nn3)c2)C1 [Example 7-37, 1,1′-(Oxydiethane-2,1-diyl)bis{3-[2-(2-{2-[2-(4-{3-[(4S)-6,8-dichloro-2-methyl-1,2,3,4-tetrahydroisoquinolin-4-yl]phenyl}-1H-1,2,3-triazol-1-yl)ethoxy]ethoxy}ethoxy)ethyl]urea}hydrochloride]
11 | 3.8 | CN1Cc2c(Cl)cc(Cl)cc2[C@H](c2cccc(-c3cnc(NCCOCCOCCOCCNC(=O)NCCCCNC(=O)NCCOCCOCCOCCNc4ncc(-c5cccc([C@@H]6CN(C)Cc7c(Cl)cc(Cl)cc76)c5)cn4)nc3)c2)C1 [Example 7-38, 1,1′-Butane-1,4-diylbis(3-{2-[2-(2-{2-[(5-{3-[(4S)-6,8-dichloro-2-methyl-1,2,3,4-tetrahydroisoquinolin-4-yl]phenyl}pyrimidin-2-yl)amino]ethoxy}ethoxy)ethoxy]ethyl}urea) hydrochloride]
12 | 5520 | CN1Cc2c(Cl)cc(Cl)cc2C(c2cccc(-c3ccnc(NCCOCCOCCNC(=O)Nc4ccc(NC(=O)NCCOCCOCCNc5cc(-c6cccc(C7CN(C)Cc8c(Cl)cc(Cl)cc87)c6)ccn5)cc4)c3)c2)C1 (stereo not shown) [Example 7-41, 1,1′-Benzene-1,4-diylbis[3-(2-{2-[2-({4-[3-(6,8-dichloro-2-methyl-1,2,3,4-tetrahydroisoquinolin-4-yl)phenyl]pyridin-2-yl}amino)ethoxy]ethoxy}ethyl)urea]trifluoroacetate]
13 | 14.9 | CN1Cc2c(Cl)cc(Cl)cc2[C@H](c2cccc(-c3ccc(NCCOCCOCCNC(=O)CCC(=O)NCCOCCOCCNc4ccc(-c5cccc([C@@H]6CN(C)Cc7c(Cl)cc(Cl)cc76)c5)cn4)nc3)c2)C1 [Example 8-1, N,N′-Bis[2-(2-{2-[(5-{3-[(4S)-6,8-dichloro-2-methyl-1,2,3,4-tetrahydroisoquinolin-4-yl]phenyl}pyridin-2-yl)amino]ethoxy}ethoxy)ethyl]butanediamide hydrochloride]
14 | 10.7 | CN1Cc2c(Cl)cc(Cl)cc2[C@H](c2cccc(-c3ccc(NCCOCCOCCNC(=O)[C@H](O)[C@@H](O)C(=O)NCCOCCOCCNc4ccc(-c5cccc([C@@H]6CN(C)Cc7c(Cl)cc(Cl)cc76)c5)cn4)nc3)c2)C1 [Example 8-2, (2R,3R)-N,N′-Bis[2-(2-{2-[(5-{3-[(4S)-6,8-dichloro-2-methyl-1,2,3,4-tetrahydroisoquinolin-4-yl]phenyl}pyridin-2-yl)amino]ethoxy}ethoxy)ethyl]-2,3-dihydroxybutanediamide hydrochloride]
15 | 13.2 | CN1Cc2c(Cl)cc(Cl)cc2[C@H](c2cccc(-c3ccc(NCCOCCOCCNC(=O)CCCCC(=O)NCCOCCOCCNc4ccc(-c5cccc([C@@H]6CN(C)Cc7c(Cl)cc(Cl)cc76)c5)cn4)nc3)c2)C1 [Example 8-3, N,N′-Bis[2-(2-{2-[(5-{3-[(4S)-6,8-dichloro-2-methyl-1,2,3,4-tetrahydroisoquinolin-4-yl]phenyl}pyridin-2-yl)amino]ethoxy}ethoxy)ethyl]hexanediamide hydrochloride]
16 | 115 | CN1Cc2c(Cl)cc(Cl)cc2[C@H](c2cccc(-c3ccc(NCCOCCOCCNC(=O)c4ccccc4C(=O)NCCOCCOCCNc4ccc(-c5cccc([C@@H]6CN(C)Cc7c(Cl)cc(Cl)cc76)c5)cn4)nc3)c2)C1 [Example 8-4, N,N′-Bis[2-(2-{2-[(5-{3-[(4S)-6,8-dichloro-2-methyl-1,2,3,4-tetrahydroisoquinolin-4-yl]phenyl}pyridin-2-yl)amino]ethoxy}ethoxy)ethyl]benzene-1,2-dicarboxamide hydrochloride]

Source: patent publication US9932331B2, “Phenyl tetrahydroisoquinoline compound substituted with heteroaryl” (TAISHO PHARMACEUTICAL CO., LTD, priority 2014, dated 2018)
